Laboratory results: patent publication US5266594A, “Inhibitors of nitric oxide synthase and use thereof to prevent glutamate neurotoxicity” (priority 1992, dated 1993)
Entries after “also recorded” stand apart in the source; their conditions may differ. Where two headings read alike, the source gives them in different places.

Legend:
NOS = settings: cited from earlier work
cortical cell cultures [1] = assay: cells; type: cell-based, rat; settings: for reversal of NO2 Arg protection from NMDA cytotoxicity: L-Arg 1 mM with 100 μM NO2 Arg, homoarginine, D-Arg, FIG. 7; for effect on NMDA-induced cell death: 300 μM NMDA (with 10 μM glycine), Hb at 500 μM; for effect on SNP-induced cell death: Hb 500 μM; for EC50: cortical cultures
Description: Primary dissociated cell cultures were prepared from fetal rats (13-to 14-day gestation for cortex and caudate-putamen cultures and 19- to 20-day gestation for hippocampal cultures). The tissue of interest was dissected, incubated for 15 minutes in 0.027% trypsin in Brooks-Logan solution (5% phosphate-buffered saline/0.04M sucrose/10 mM Hepes/0.03M glucose, pH 7.4), and then transferred to modified Eagle's medium (MEM) 10% horse serum/10% fetal bovine serum/2 mM glutamine for trituration. Dissociated cells were plated at a density of 3-4×10^5 cells per well in polyornithine-coated 15-mm multiwell plates. After 4 days the cells were treated with 10 μg of 5-fluoro-2'-deoxyuridine to prevent proliferations of noneuronal cells. Cells were maintained in MEM/5% horse serum/2 mM glutamine in 8% CO2 /humidified atmosphere at 37° C. The medium was changed twice weekly. Mature neurons (3-4 weeks) were used.
Cells were exposed to excitatory amino acids according to the method of Koh and Choi (J. Neurosci. (1988) 8:2153-2163). Before exposure, the cells were washed three times with Tris-buffered control salt solution (CSS), containing 120 mM NaCl/5.4 mM KCl/1.8 mM CaCl2 /25 mM Tris hydrochloride, pH 7.4 at room temperature/15 mM glucose. Brief exposures to glutamate, NMDA (plus 10 μM glycine), quisqualate, and sodium nitroprusside (SNP) were performed for 5 minutes in CSS. The exposure solution was then washed away and replaced by MEM with 21 mM glucose; then the cells were placed in an incubator for 20-24 hour. Long exposures to kainate were performed in MEM/21 mM glucose for 20-24 hour in the incubator. After exposure to the excitatory amino acids, the medium was replaced by CSS/0.4% trypan blue, which stains nonviable cells. Two to four photographs (10-20×) were made of each well, and viable versus nonviable cells were counted. The cytotoxicity data represent 6-24 separate wells assayed per data point, with ≈500-1500 cells counted per well. Neuronal cell injury was also assessed by measuring the release of lactate dehydrogenase by damaged or destroyed cells into the extracellular fluid following drug exposure.
Before initiating cytotoxicity experiments with NOS inhibitors, the potency of NMDA applied for 5 minutes in inducing cell death was evaluated by examining exclusion of 0.4% trypan blue by viable cells or measuring lactate dehydrogenase released by damaged or destroyed cells into the extracellular fluid.
To examine the role of NO in other forms of glutamate neurotoxicity, the effects of NO2 Arg cytotoxicity induced by quisqualate, kainate, and NMDA were compared. […] Data are means ±SEM (n=6-24). Cell death was determined by 0.4% trypan blue exclusion by viable cells.

[2] = tested on: brain or macrophage enzyme (NOS); assay: NOS inhibition and brain/macrophage selectivity of arginine, nitroarginine and guanidinoalkanoic acid analogs; type: biochemical
[3] = target: brain NOS (cerebellar NOS) (Rattus norvegicus, UniProt P29476); assay: inhibition of NOS activity, conversion of [^3 H]arginine to [^3 H]citrulline, cerebellar homogenates/supernatants in vitro; settings: for inhibition of brain NOS, in words: guanidinoalkanoic acid series
Text: (§1) Inhibitors of NOS are compounds which compete for the substrate binding site of NOS or other sites on the enzyme, and include both reversible and irreversible inhibitors. The present invention contemplates the use of any physiologically acceptable inhibitor which inhibits NOS activity. The effectiveness of a compound, and its relative potency as an NOS inhibitor, can be tested and routinely determined by measuring inhibition of NOS activity by monitoring the conversion of arginine to citrulline by NOS in, for example, cerebellar homogenates. A reduction in citrulline formation indicates inhibitory activity of the compound. The percent reduction in citrulline formation, compared to the amount of citrulline formed in the absence of the compound being tested, indicates the potency of the compound as an NOS inhibitor.
Rat cerebella were homogenized in 10 vols. (w/v) […] Tris (pH 7.4), 2 mM EDTA. Homogenates were centrifuged at 10,000×g for 15 minutes at 4° C. Supernatant preparations were used in the enzyme assays. Cerebellar tissue was dialyzed (Spectra/Por, 10,000 MWCO, EDTA-treated cellulose dialysis tubing) against 20 mM Tris (pH 7.4), 2 mM EDTA (300 ml×2) for 24 hours at 4° C.
Cerebellar homogenates were incubated with arginine derivatives for one hour at 4° C., and dialyzed overnight. Aliquots (25 μg protein) were assayed for NOS activity before and after dialysis.
(§2) NOS activity was measured by monitoring the conversion of [^3 H]arginine to [^3 H]citrulline as described by Bredt and Snyder (Proc. Natl. Acad. Sci USA (1990) 87682-685). Briefly, enzyme assays contained 25 μl of soluble tissue, 50 μl of […] [^3 H]arginine and 1 mM NADPH, and 25 μl of 3 mM CaCl2. After a 15 minute incubation at room temperature, the assays were terminated with 3 ml of 20 mM Hepes (pH 5.5) with 2 mM EDTA, and were applied to 0.5 ml columns of Dowex AG50WX8 (Na^+ form). [^3 H]citrulline was quantified by liquid scintillation spectroscopy of the 3 ml flow-through.
(§3) Accordingly, the effects of 2, 4 and 24 hours of preincubations of cerebellar supernatants (FIG. 2A) and activated macrophage homogenates (FIG. 2B) with NO2 Arg were examined. The preincubation was conducted at 4° C. since NOS is unstable at higher temperature for long periods of time. Enzymatic incubation was conducted for only 5 minutes to minimize any reaction of the inhibitor with the enzyme in the course of the incubation procedure.
Cerebellar supernatants were made as described in Example 1.

[4] = tested on: macrophage NOS (activated macrophage homogenates); assay: inhibition of NOS activity in activated macrophage homogenates in vitro; type: biochemical; settings: guanidinoalkanoic acid series
Text: as §1, §2, §3
Macrophages were activated as described by Tayeh and Marletta (J. Biol. Chem. (1989) 264:19654-19658) with 3.5 ng/ml LPS from E. coli and 5 units/ml recombinant murine γ-interferon for 24 hours at 37° C. Cells were homogenized in 20 mM Hepes (pH 7.4).

cGMP formation = cGMP formation in cortical cell cultures (RIA); type: cell-based, rat; settings: for effect on NMDA stimulation of cGMP formation: 300 μM NMDA (plus 10 μM glycine), 1 minute, 100 μM NO2 Arg, 1 mM L-Arg, 100 units of SOD, 500 μM Hb
Description: Primary dissociated cell cultures were prepared from fetal rats (13-to 14-day gestation for cortex and caudate-putamen cultures and 19- to 20-day gestation for hippocampal cultures). […] Dissociated cells were plated at a density of 3-4×10^5 cells per well in polyornithine-coated 15-mm multiwell plates. After 4 days the cells were treated with 10 μg of 5-fluoro-2'-deoxyuridine to prevent proliferations of noneuronal cells. Cells were maintained in MEM/5% horse serum/2 mM glutamine in 8% CO2 /humidified atmosphere at 37° C. The medium was changed twice weekly. Mature neurons (3-4 weeks) were used.
For determination of cGMP the cells were washed three times with CSS. […] After ether extraction, cGMP levels were determined by RIA.
Data are means ±SEM (n=6-8).
Data are means ±SEM (n=8-12).

cortical cell cultures [5] = settings: Koh et al. (1990); cited from earlier work

brain NOS (cerebellar NOS), sequence (P29476 whole entry): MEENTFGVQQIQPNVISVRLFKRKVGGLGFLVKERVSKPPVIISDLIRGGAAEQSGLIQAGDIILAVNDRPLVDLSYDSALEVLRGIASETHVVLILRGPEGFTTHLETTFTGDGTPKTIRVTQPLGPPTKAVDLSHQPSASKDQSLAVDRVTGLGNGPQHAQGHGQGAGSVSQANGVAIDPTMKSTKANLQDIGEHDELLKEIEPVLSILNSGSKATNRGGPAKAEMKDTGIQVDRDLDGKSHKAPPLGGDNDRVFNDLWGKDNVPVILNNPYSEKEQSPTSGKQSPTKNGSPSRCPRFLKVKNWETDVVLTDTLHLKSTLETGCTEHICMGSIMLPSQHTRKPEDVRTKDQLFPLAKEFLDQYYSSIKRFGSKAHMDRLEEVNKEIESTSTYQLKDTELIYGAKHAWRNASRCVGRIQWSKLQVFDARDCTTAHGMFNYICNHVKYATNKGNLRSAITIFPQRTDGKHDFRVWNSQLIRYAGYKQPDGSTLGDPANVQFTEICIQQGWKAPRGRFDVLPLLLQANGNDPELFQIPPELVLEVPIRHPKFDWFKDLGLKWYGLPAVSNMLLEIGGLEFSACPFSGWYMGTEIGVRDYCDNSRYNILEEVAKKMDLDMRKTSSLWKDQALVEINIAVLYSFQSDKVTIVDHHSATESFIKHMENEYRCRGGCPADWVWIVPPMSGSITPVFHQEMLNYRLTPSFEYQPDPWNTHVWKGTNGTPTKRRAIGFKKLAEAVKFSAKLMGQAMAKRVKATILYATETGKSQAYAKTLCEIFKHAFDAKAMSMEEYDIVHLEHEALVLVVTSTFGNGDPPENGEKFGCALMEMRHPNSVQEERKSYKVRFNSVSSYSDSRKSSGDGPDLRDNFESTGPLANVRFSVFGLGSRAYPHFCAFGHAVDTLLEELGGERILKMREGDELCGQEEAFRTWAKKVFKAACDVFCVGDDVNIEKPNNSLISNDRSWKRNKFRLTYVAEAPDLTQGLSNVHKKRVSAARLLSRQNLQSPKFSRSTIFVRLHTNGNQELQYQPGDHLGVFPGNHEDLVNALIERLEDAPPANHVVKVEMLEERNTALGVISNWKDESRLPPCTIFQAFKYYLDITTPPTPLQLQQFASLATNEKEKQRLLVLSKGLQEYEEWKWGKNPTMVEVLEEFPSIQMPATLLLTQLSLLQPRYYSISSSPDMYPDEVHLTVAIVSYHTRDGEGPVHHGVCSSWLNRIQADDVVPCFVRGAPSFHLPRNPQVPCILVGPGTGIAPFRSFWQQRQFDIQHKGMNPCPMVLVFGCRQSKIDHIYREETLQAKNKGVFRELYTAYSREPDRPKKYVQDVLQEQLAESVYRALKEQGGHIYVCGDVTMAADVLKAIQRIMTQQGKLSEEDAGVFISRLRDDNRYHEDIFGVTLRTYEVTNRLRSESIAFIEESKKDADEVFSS

## N=C(N)NCCCC[C@H](N)C(=O)O [Homoarginine, homoarginine]
NOS; Knowles et al. (1989)
  affinity for NOS: less affinity for NOS than L-Arg
Cortical cell cultures [1]
  reversal of NO2 Arg protection from NMDA cytotoxicity: reverses effects of NO2 Arg but is less potent than L-Arg

## N=C(N)NCCCCCC(=O)O [6-GHA, 6-guanidinohexanoic acid]
[2]
  selectivity between brain and macrophage enzyme, in words: good selectivity toward the macrophage enzyme
[3]
  inhibition of brain NOS, in words: inactive against the brain NOS
[4]
  inhibition of macrophage enzyme, in words: potent inhibitors

## N[C@@H](CCC(=O)O)C(=O)O [glutamate]
Cortical cell cultures [1]; 500 μM glutamate alone
  Cell death, % ± SEM (glutamate): 48.4 ± 4.4%

## N=C(N)NCCC[C@H](N)C(=O)O [L-Arg, L-arginine]
Cortical cell cultures [1]
  reversal of NO2 Arg protection from NMDA cytotoxicity: reverses the inhibition by 100 μM NO2 Arg
Cortical cell cultures [1]; listed as L-arginine
  reversal of NO2 Arg protection from NMDA cytotoxicity: competitively reversed by L-arginine
Cortical cell cultures [1]; listed as L-arginine (L-Arg)
  reversal of NO2 Arg protection from NMDA cytotoxicity: completely reverses the effect of NO2 Arg
Cortical cell cultures [1]; graded L-Arg added to L-Arg-free medium
  concentration required to obtain maximal NMDA effects: 100 µM
Cortical cell cultures [1]; quisqualate
  protection against quisqualate-induced cell death: reversal by L-Arg
cGMP formation
  effect on NMDA stimulation of cGMP formation: competitively reversible by L-Arg

## Hb: reduced hemoglobin (Hb), which binds NO
Cortical cell cultures [1]
  effect on NMDA-induced cell death: completely prevents NMDA-induced cell death; also recorded: reverses cell death
  effect on SNP-induced cell death: completely prevents SNP-induced cell death; also recorded: completely reverses SNP-mediated cytotoxicity
Cortical cell cultures [1]; listed as Hemoglobin
  effect on NMDA-induced cell death: prevents neurotoxic effects of both N-methyl-D-aspartate and sodium nitroprusside
  effect on SNP-induced cell death: prevents neurotoxic effects of both N-methyl-D-aspartate and sodium nitroprusside
cGMP formation
  effect on NMDA stimulation of cGMP formation: antagonized
cGMP formation; SNP, 1-minute exposure
  effect on cGMP levels in cortical cells (SNP): blocked by Hb; also recorded: completely reverses SNP-mediated cytotoxicity and cGMP formation

## N=C(N)NCCCCC(=O)O [5-GPA, 5-guanidinopentanoic acid]
[2]
  selectivity between brain and macrophage enzyme, in words: good selectivity toward the macrophage enzyme
[3]
  inhibition of brain NOS, in words: inactive against the brain NOS
[4]
  inhibition of macrophage enzyme, in words: potent inhibitors

## CNC(=N)NCCC[C@H](N)C(=O)O [MeArg, L-N^ω -monomethylarginine]
[3]; cerebellar supernatant preparations, FIG. 1
  relative potency as inhibitor of NOS activity: NO2 Arg is a more potent inhibitor of NOS activity than MeArg
NOS; Dwyer et al. (1991), read-out: Ki, inhibition of NOS activity of purified enzyme preparations
  Ki: 2 µM
Cortical cell cultures [1]
  prevention of neurotoxicity, in words: prevent neurotoxicity in proportion to their relative potencies as NOS inhibitors
Cortical cell cultures [1]; Rattus norvegicus, NMDA and related excitatory amino acids, read-out: EC50 for preventing neurotoxicity elicited by N-methyl-D-aspartate
  EC50: 170 µM
Cortical cell cultures [1]; Rattus norvegicus, NMDA, read-out: concentration giving 50% prevention of NMDA-induced cell death
  EC50: 170 µM

## C=C(C)[C@H]1CN[C@H](C(=O)O)[C@H]1CC(=O)O [kainate]
Cortical cell cultures [5]
  neurotoxic action relative to NMDA: act more slowly and less potently than NMDA
Cortical cell cultures [1]; Rattus norvegicus, read-out: Cell death, % ± SEM (kainate)
  cytotoxicity at 100 µM: 81.4 ± 7.1%

## N[C@@H](Cn1oc(=O)[nH]c1=O)C(=O)O [quisqualate]
Cortical cell cultures [5]
  neurotoxic action relative to NMDA: act more slowly and less potently than NMDA
Cortical cell cultures [1]; Rattus norvegicus, 500 μM quisqualate alone, read-out: Cell death, % ± SEM (quisqualate)
  cytotoxicity at 500 µM: 64.2 ± 3.7%

## CN[C@H](CC(=O)O)C(=O)O [NMDA, N-methyl-D-aspartate]
Cortical cell cultures [1]; Rattus norvegicus, 5 min, read-out: toxic LD50
  CC50: 280 µM
Cortical cell cultures [1]; Rattus norvegicus, 5 min, 300 μM, 5 minutes, read-out: cell death at 300 μM NMDA
  cytotoxicity at 300 µM: 60%
Cortical cell cultures [1]; Rattus norvegicus, 300 μM NMDA + 10 μM glycine alone, read-out: Cell death, % ± SEM (NMDA)
  cytotoxicity at 300 µM: 57.8 ± 2.6%
Cortical cell cultures [1]; Rattus norvegicus, arginase-treated preparations / L-Arg-free medium, read-out: 50% lethal concentration
  CC50: 7500 µM
Cortical cell cultures [1]; arginase-treated preparations / L-Arg-free medium
  increase of the 50% lethal concentration of NMDA: > 20 fold

## N=C(N)NCCC[C@@H](N)C(=O)O [D-Arg, D-arginine]
Cortical cell cultures [1]
  reversal of NO2 Arg protection from NMDA cytotoxicity: much weaker than L-Arg; also recorded: comparable to that obtained with 10 μM L-Arg
